Reference: patent US10894772B2, “Flavor modulator having pyridine derivative or salt thereof as active ingredient” (T. HASEGAWA CO., LTD., priority 2015, dated 2021)

Legend:
Format in all cases: in vivo
panelists [1] = experiment: Flavor evaluation of ethanol solution (bottle mouth and flavor paper); details: 1% ethanol solution, typical evaluation, 5 panelists
Method: (§1) A 1% ethanol solution of the invention products 1 to 6 prepared in Examples 1 to 6 was prepared as an evaluation solution. The evaluation solution was prepared in a sample bottle. Regarding the flavor of the sample smelling from the bottle mouth and the flavor of a flavor paper prepared by infiltrating the evaluation solution into a paper, well-trained 5 panelists tested the solution for flavor evaluation.
as §1, with “0.1%” for “1%”, “product 101 (2-(3-benzyloxypropyl)pyridine)” for “products 1 to 6”, “Example 101” for “Examples 1 to 6”, “evaluation. A typical evaluation of the product is as follows.” for “evaluation.”

panelists [2] = experiment: Confirmation of umami in water (point score); details: average point of 10 panelists, 0 no difference from control (water), 1 somewhat stronger, 2 stronger, 3 considerably stronger, 4 poor taste balance
Method: As a comparative product, a solution was prepared by dissolving the comparative product 1 (2-(2-benzyloxyethyl)pyridine) to have the same concentration. Water with no addition was prepared as a control product. Well-trained 10 panelists tasted the solutions prepared by dissolving any the invention products 1 to 6 and the comparative product 1 for organoleptic evaluation of umami.
Umami evaluation was based on the control product of water.

panelists [3] = experiment: Confirmation of umami imparting and saltiness enhancing effect in 0.3 mass % sodium chloride (point score); details: average point of 10 panelists vs control, 0 no change, 1 slightly higher, 2 higher, 3 considerably higher, 4 extremely higher umami and saltiness, 5 bitter as lacking balance
Method: An aqueous 0.3 mass % sodium chloride solution (control), and solutions of the invention products 1 to 6 each dissolved in a 0.3 mass % sodium chloride solution to have the concentration shown in Table 5 were prepared. As a comparative product, a solution was prepared by dissolving the comparative product 1 in 0.3 mass % sodium chloride. Well-trained 10 panelists tasted the solutions for organoleptic evaluation of umami impartment and saltiness enhancement.
Umami and saltiness scores are as follows, based on the aqueous 0.3 mass % sodium chloride solution as a control. Each sample was given any of a point 0, no change from control; 1, slightly higher umami and saltiness than control; 2, higher umami and saltiness than control; 3, considerably higher umami and saltiness than control; 4, extremely higher umami and saltiness than control; and 5, bitter as lacking balance of umami and saltiness.

[4] = 0.05 ppb in aqueous 0.3 mass % sodium chloride solution
[5] = 0.1 ppb in aqueous 0.3 mass % sodium chloride solution
[6] = 0.1 ppm in aqueous 0.3 mass % sodium chloride solution
[7] = 0.5 ppm in aqueous 0.3 mass % sodium chloride solution
[8] = 1 ppb in aqueous 0.3 mass % sodium chloride solution
[9] = 2 ppm in aqueous 0.3 mass % sodium chloride solution
[10] = 10 ppb in aqueous 0.3 mass % sodium chloride solution
[11] = 10 ppm in aqueous 0.3 mass % sodium chloride solution
[12] = 50 ppm in aqueous 0.3 mass % sodium chloride solution

| Compound | Flavor Evaluation (panelists [1]) | umami (average point) (panelists [2]; 0.1 ppm in water) | umami (average point) (panelists [2]; 1 ppm in water) | umami (average point) (panelists [2]; 2 ppb in water) | umami (average point) (panelists [2]; 10 ppb in water) | umami (average point) (panelists [2]; 20 ppm in water) | umami (average point) (panelists [2]; 200 ppm in water) | umami (average point) (panelists [2]; 500 ppm in water) | umami (average point) (panelists [2]; 2000 ppm in water) | umami and saltiness (average point) (panelists [3]; [4]) | umami and saltiness (average point) (panelists [3]; [5]) | umami and saltiness (average point) (panelists [3]; [6]) | umami and saltiness (average point) (panelists [3]; [7]) | umami and saltiness (average point) (panelists [3]; [8]) | umami and saltiness (average point) (panelists [3]; [9]) | umami and saltiness (average point) (panelists [3]; [10]) | umami and saltiness (average point) (panelists [3]; [11]) | umami and saltiness (average point) (panelists [3]; [12]) |
| --- | --- | --- | --- | --- | --- | --- | --- | --- | --- | --- | --- | --- | --- | --- | --- | --- | --- | --- |
| c1ccc(COCCCCc2ccccn2)cc1 [invention product 1, 2-(4-benzyloxybutyl)pyridine] | Earthy | 1.6 | 2.3 | 0.0 | 0.8 | 2.9 | 3.4 | 3.8 | 4.0 | 0.0 | 0.8 | 3.2 | 3.7 | 1.4 | 4.3 | 2.3 | 4.7 | 4.9 |
| c1ccc(CCOCCc2ccccn2)cc1 [invention product 2, 2-(2-phenylethoxyethyl)pyridine] | Earthy, hyacinthine | 1.5 | 2.0 | 0.0 | 0.7 | 2.8 | 3.2 | 3.8 | 4.0 | 0.0 | 0.7 | 3.0 | 3.9 | 1.5 | 4.4 | 2.4 | 4.6 | 5.0 |
| COc1ccc(COCCCc2ccccn2)cc1 [invention product 3, 2-[3-(p-methoxybenzyloxy)propyl]pyridine] | Bitter almond | 1.4 | 2.1 | 0.0 | 0.8 | 2.8 | 3.0 | 3.6 | 3.9 | 0.0 | 0.8 | 3.3 | 3.5 | 1.6 | 4.2 | 2.6 | 4.8 | 4.9 |
| c1ccc(CCSCCc2ccccn2)cc1 [invention product 4, 2-(2-phenylethylthioethyl)pyridine] | Metallic spicy savor | 1.6 | 2.2 | 0.0 | 0.7 | 3.0 | 3.6 | 3.9 | 4.0 | 0.0 | 0.6 | 3.4 | 3.8 | 1.8 | 4.5 | 2.3 | 4.8 | 5.0 |
| Cc1ccc(COCCCc2ccccn2)cc1 [invention product 5, 2-[3-(p-methylbenzyloxy)propyl]pyridine] | Nutty | 1.4 | 2.0 | 0.0 | 0.6 | 2.7 | 3.1 | 3.6 | 3.9 | 0.0 | 0.8 | 3.0 | 3.6 | 1.5 | 4.2 | 2.2 | 4.6 | 4.8 |
| Cc1ccc(C)c(COCCCc2ccccn2)c1 [invention product 6, 2-[3-(2,5-dimethylbenzyloxy)propyl]pyridine] | Rummy | 1.2 | 2.0 | 0.0 | 0.5 | 2.6 | 3.0 | 3.6 | 3.9 | 0.0 | 0.5 | 2.9 | 3.5 | 1.3 | 4.1 | 2.0 | 4.6 | 4.8 |
